Experiments:
Experiment in all cases: relative viability (nuclei count vs DMSO), 5 days (fraction); higher = more cells survive
Palbociclib + Bortezomib = compound: CC(=O)c1c(C)c2cnc(Nc3ccc(N4CCNCC4)cn3)nc2n(C2CCCC2)c1=O [Palbociclib] + CC(C)C[C@H](NC(=O)[C@H](Cc1ccccc1)NC(=O)c1cnccn1)B(O)O [Bortezomib] (partner 0.002 µM)
How it was run: (§1)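 After 5 days of treatment, lung cancer cells in 1536-well plates were fixed and stained in a single step (final 0.05% Triton X-100, 1% formaldehyde, 1 ug/ml Hoechst) and their nuclei counted on 4× images. Treatment had been applied by pin tool the day after seeding as one drug alone or as a fixed anchor-drug dose with five library-drug doses (not always all listed) in √10 steps. Relative viability is the nuclei count of treated wells divided by that of vehicle wells, and values are medians of duplicate plates.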

Palbociclib + OSI-027 = compound: CC(=O)c1c(C)c2cnc(Nc3ccc(N4CCNCC4)cn3)nc2n(C2CCCC2)c1=O [Palbociclib] + COc1cccc2cc(-c3nc([C@H]4CC[C@H](C(=O)O)CC4)n4ncnc(N)c34)[nH]c12 [OSI-027] (partner 0.5 µM)
How it was run: as §1

Palbociclib + Crizotinib = compound: CC(=O)c1c(C)c2cnc(Nc3ccc(N4CCNCC4)cn3)nc2n(C2CCCC2)c1=O [Palbociclib] + C[C@@H](Oc1cc(-c2cnn(C3CCNCC3)c2)cnc1N)c1c(Cl)ccc(F)c1Cl [Crizotinib] (partner 1 µM)
How it was run: as §1

Palbociclib + Olaparib = compound: CC(=O)c1c(C)c2cnc(Nc3ccc(N4CCNCC4)cn3)nc2n(C2CCCC2)c1=O [Palbociclib] + O=C(c1cc(Cc2n[nH]c(=O)c3ccccc23)ccc1F)N1CCN(C(=O)C2CC2)CC1 [Olaparib] (partner 8 µM)
How it was run: as §1

Cell Line	relative viability (Palbociclib + Bortezomib; first compound 0.01 µM)	relative viability (Palbociclib + Bortezomib; first compound 0.03162 µM)	relative viability (Palbociclib + Bortezomib; first compound 0.1 µM)	relative viability (Palbociclib + Bortezomib; first compound 0.3162 µM)	relative viability (Palbociclib + Bortezomib; first compound 1 µM)	relative viability (Palbociclib + OSI-027; first compound 0.01 µM)	relative viability (Palbociclib + OSI-027; first compound 0.1 µM)	relative viability (Palbociclib + OSI-027; first compound 0.3162 µM)	relative viability (Palbociclib + OSI-027; first compound 1 µM)	relative viability (Palbociclib + Crizotinib; first compound 0.01 µM)	relative viability (Palbociclib + Crizotinib; first compound 0.03162 µM)	relative viability (Palbociclib + Crizotinib; first compound 0.1 µM)	relative viability (Palbociclib + Crizotinib; first compound 0.3162 µM)	relative viability (Palbociclib + Crizotinib; first compound 1 µM)	relative viability (Palbociclib + Olaparib; first compound 0.01 µM)	relative viability (Palbociclib + Olaparib; first compound 0.03162 µM)	relative viability (Palbociclib + Olaparib; first compound 0.1 µM)	relative viability (Palbociclib + Olaparib; first compound 0.3162 µM)	relative viability (Palbociclib + Olaparib; first compound 1 µM)	relative viability (Palbociclib + OSI-027; first compound 0.03162 µM)
NCI-H596	1.06	0.984	0.998	1.01	1.04	0.681	0.761	0.649	0.809	0.98	0.905	0.986	1.05	0.973	0.708	0.809	0.724	0.707	0.68	
NCI-H2170						0.72	0.61	0.638	0.407	1.23	1.07	1.11	1.13	0.785	0.675	0.61	0.551	0.488	0.436	0.642
NCI-H2405	0.973	0.769	0.847	1.01	0.597	0.586	0.492	0.483	0.396	0.829	0.649	0.698	0.703	0.586	0.842	0.841	0.765	0.682	0.527	0.487
HCC-366	0.953		0.965	0.975	0.616	0.916	0.722	0.731	0.482	0.539		0.501	0.526	0.413	0.376		0.384	0.335	0.215	
NCI-H1975	0.356	0.356	0.349	0.406	0.366	0.809	0.665	0.685	0.518	0.979	0.861	0.869	0.763	0.758	0.859	0.762	0.737	0.623	0.61	0.673
NCI-H1755	0.977	0.761	0.803	0.733	0.483	0.677	0.555	0.633	0.391	0.927	0.889	0.707	0.706	0.539	0.875	0.841	0.812	0.788	0.664	0.496
COR-L23	0.952	0.795	0.831	0.721	0.344	0.763	0.491	0.521	0.39	0.707	0.551	0.427	0.32	0.287	0.312	0.271	0.233	0.194	0.175	0.6
PC-3 [JPC-3]	0.776	0.701	0.706	0.665	0.545	0.728	0.561	0.483	0.349	0.988	1.04	0.86	0.797	0.653	1.16	0.903	0.816	0.872	0.526	0.599
NCI-H2126	1.1	0.91	0.925	0.801	0.599	0.694	0.443	0.441	0.378	1.04	1.04	0.928	0.789	0.598	0.972	0.833	0.698	0.719	0.526	0.53
NCI-H1944						0.461	0.335	0.325	0.213	1.01	0.969	0.904	0.98	0.851	0.411	0.397	0.404	0.341	0.339	0.336
NCI-H647	0.963	0.814	0.696	0.851	0.472	0.788	0.652	0.636	0.362	0.947	0.809	0.759	0.735	0.462	0.809	0.488	0.502	0.513	0.442	0.496
NCI-H1395						0.64	0.536	0.54	0.415						0.429	0.423	0.421	0.477	0.514	0.55
LCLC-103H	1.2	0.957	0.967	0.87	0.649	0.432	0.406	0.358	0.302	1.04	1.04	0.846	0.995	0.804	0.701	0.709	0.731	0.669	0.584	0.368
EPLC-272H	0.836		0.792	0.883	0.512	0.293	0.257	0.254	0.213	0.967		0.779	0.893	0.799	0.779	0.807	0.681	0.615	0.313	
EKVX	1.12	0.916	1.04	0.989	0.461	0.713	0.6	0.575	0.366	1.13	0.898	0.818	0.781	0.499	0.915		0.647	0.608	0.438	0.664
NCI-H1915	1.02	0.684	0.921	0.947	0.778	0.628	0.511	0.513	0.407	0.89	0.863	0.879	0.856	0.796	0.244		0.257	0.258	0.244	0.426

Cell Line	relative viability (Palbociclib + Bortezomib; first compound 0.01 µM)	relative viability (Palbociclib + Bortezomib; first compound 0.03162 µM)	relative viability (Palbociclib + Bortezomib; first compound 0.1 µM)	relative viability (Palbociclib + Bortezomib; first compound 0.3162 µM)	relative viability (Palbociclib + Bortezomib; first compound 1 µM)	relative viability (Palbociclib + OSI-027; first compound 0.01 µM)	relative viability (Palbociclib + OSI-027; first compound 0.1 µM)	relative viability (Palbociclib + OSI-027; first compound 0.3162 µM)	relative viability (Palbociclib + OSI-027; first compound 1 µM)	relative viability (Palbociclib + Crizotinib; first compound 0.01 µM)	relative viability (Palbociclib + Crizotinib; first compound 0.03162 µM)	relative viability (Palbociclib + Crizotinib; first compound 0.1 µM)	relative viability (Palbociclib + Crizotinib; first compound 0.3162 µM)	relative viability (Palbociclib + Crizotinib; first compound 1 µM)	relative viability (Palbociclib + Olaparib; first compound 0.01 µM)	relative viability (Palbociclib + Olaparib; first compound 0.03162 µM)	relative viability (Palbociclib + Olaparib; first compound 0.1 µM)	relative viability (Palbociclib + Olaparib; first compound 0.3162 µM)	relative viability (Palbociclib + Olaparib; first compound 1 µM)	relative viability (Palbociclib + OSI-027; first compound 0.03162 µM)
NCI-H2347	1.01		0.929		0.684	0.467	0.402	0.379	0.308	0.632	0.602	0.498	0.588	0.558	0.606	0.549	0.564	0.51	0.49	
NCI-H2228	1.08	0.871	0.88	0.875	0.89	0.529	0.389	0.492	0.48	0.447	0.45	0.406	0.31	0.369	0.724	0.624	0.55	0.64	0.465	0.373
NCI-H1299	1	0.871	0.925	0.873	0.72					0.938	0.895	0.86	0.7	0.631	0.925	0.924	0.886	0.79	0.65	
NCI-H650	0.912		0.61	0.637	0.377	0.53	0.393	0.376	0.331	0.619		0.446	0.58	0.475	0.44		0.318	0.354	0.246	0.309
PC-14	1.02	0.863	0.751	0.655	0.57	0.964	0.572	0.603	0.362	1.01	0.84	0.799	0.739	0.594	0.31	0.296	0.311	0.214	0.176	0.515
A549										0.776	0.65	0.472	0.362	0.29	0.345	0.0522	0.282	0.3	0.231	
NCI-H1793						0.262	0.238	0.223	0.186						1.03	0.628	0.832	0.81	0.501	
NCI-H358						0.807	0.501	0.455	0.138	0.453	0.479	0.335	0.332	0.187	0.571	0.486	0.452	0.292	0.136	0.62
NCI-H522						0.772	0.777	0.765	0.765						0.642	0.612	0.689	0.678	0.616	0.606
LK-2						0.208	0.182	0.212	0.162	0.247		0.23	0.227	0.246	0.896	0.656	0.625	0.585	0.556	
NCI-H2342						0.575	0.566	0.549	0.433						0.497	0.504	0.375	0.422	0.419	0.546
NCI-H1703	0.266	0.23	0.197	0.226	0.188					0.845		0.513	0.505	0.227	0.417	0.339	0.293	0.199	0.203	
Calu-6	0.926	0.95	0.727	0.89	0.412					0.867	0.68	0.662	0.551	0.451	0.612	0.549	0.511	0.528	0.417	
SK-MES-1						0.528	0.345	0.314	0.186	0.943	0.952	0.724	0.714	0.45	0.695	0.57	0.446	0.343	0.205	0.364
IA-LM	0.606	0.49	0.469	0.348	0.134					0.748	0.505	0.373	0.138	0.0793	0.755	0.643	0.548	0.474	0.268	
EBC-1	0.468	0.445	0.353	0.281	0.193					0.193	0.165	0.195	0.17	0.18	0.696	0.647	0.452	0.514	0.241	
